From patent US8829014B2, “Thiazole and thiophene analogues, and their use in treating autoimmune diseases and cancers” (Board of Supervisors of Louisiana State University and …, priority 2006, dated 2014)

These molecules were tested on carageenan-induced edema (assay: Carrageenan-induced rat paw edema test (anti-inflammatory activity)). Conditions: Rattus norvegicus, po, 3 h, carrageenan-induced rat paw edema; defined in Example 397; read-out: % Protection.
Format: in vivo, Sprague-Dawley rats
Design: % Protection: concentration or dose not given beside the values
Method: Sprague-Dawley rats, male and female, 150-250 g will be used in an edema test. Rats will be deprived of food but not water for 18 hours prior to the experiment. The test compounds will be administered with a blunt-tipped needle orally, 50 mg/kg, as a suspension in 0.1% sodium CMC (carboxymethylcellulose) vehicle. Alternatively, the test compounds will be injected intravenously, subcutaneously, or intraperitoneally. One hour later, 0.1 ml of a 1% carrageenan solution in saline will be injected in the sub-plantar region of the right hind paw of each rat. […] The reading will be repeated 3 hours later. The displacement readings give a measure of carageenan-induced edema. Any reduction in carageenan-induced edema with a test compound, as compared to saline control, is a measure of the anti-inflammatory activity of the test compound. The percentage protection at 50-mg/kg doses was calculated according to the following formula: % Protection=[(Control−Test)/Control]×100%.
Following treatment, the media from the VSMC and HUVEC incubations were removed, and the amount of lactate dehydrogenase (LDH) released into the medium was determined with a commercial kit and expressed as a % increase over vehicle-treated cells. HPT toxicity was determined by the ethidium homodimer (EthHD) uptake assay. […] The lead compounds were also tested in two pairs of cell lines from the skin or prostate, one tumorigenic and one non-tumorigenic, to test for differing toxicity or heightened sensitivity in the tumorigenic lines. The cells were treated for 48 h with vehicle (0.1% DMSO) or 10 μM of each drug candidate, and the viability of the cells was determined by the MTT assay, expressed as a % decrease in viability compared to vehicle-treated cells. The in vivo inflammation model measured the % inhibition of rat paw edema induced by carageenan injection.
`Cc1ccc(Nc2nc(C)c(-c3nc4ccccc4c(=O)n3-c3ccc(Cl)cc3)s2)cc1` [Example 247, 2-[2-(4-Methylphenylamino)-4-methyl-thiazol-5-yl]-3-(4-chloro-phenyl)-3H-quinazolin-4-one] was tested, and the inhibition in vivo at 50 mg/kg was 71.9%.

Same assay, conditions: Rattus norvegicus, po, 3 h, rat paw edema, 50 mg/kg, reading 3 hours after carrageenan; [(Control−Test)/Control]×100%; read-out: % Protection P
`CC(=O)Nc1ccc(-c2cc(C(=O)c3ccc(S(C)(=O)=O)cc3)sc2N2CCOCC2)cc1` [Example 72, N-{4-[5-(4-Methansulfonyl-benzoyl)-2-morpholin-4-yl-thiophene-3-yl]-phenyl}-acetamide] was tested, and the inhibition in vivo at 50 mg/kg was 50%. Work on `O=c1c2ccccc2nc(-c2cc(-c3ccc(Cl)cc3)c(N3CCOCC3)s2)n1-c1ccccc1Cl` [Example 305, 2-[4-(4-Chlorophenyl)-5-morpholin-4-yl-thiophene-2-yl]-3-(2-chlorophenyl)-3H-quinazolin-4-one] yielded an inhibition in vivo at 50 mg/kg of 40%. `O=C(Nc1ccc(F)cc1)Nc1nc(Nc2ccc(Cl)cc2)sc1C(=O)c1cccnc1` [Example 359, 1-[2-(4-Chloro-phenylamino)-5-(pyridine-3-carbonyl)-thiazol-4-yl]-3-(4-fluoro-phenyl)-urea] showed an inhibition in vivo at 50 mg/kg of 64.2%. In the case of `Cc1ccccc1-n1c(-c2cc(-c3ccc(Cl)cc3)c(N3CCOCC3)s2)nc2ccccc2c1=O` [Example 279, 2-[4-(4-Chloro-phenyl)-5-morpholin-4-yl-thiophen-2-yl]-3-o-tolyl-3H-quinazolin-4-one], the inhibition in vivo at 50 mg/kg is reported as 0%. Molecule `O=C(Nc1ccc(F)cc1)Nc1nc(Nc2ccc(Cl)cc2)sc1C(=O)c1ccc(Cl)cc1Cl` [Example 358, 1-[2-(4-Chloro-phenylamino)-5-(2,4-dichloro-benzoyl)-thiazol-4-yl]-3-(4-fluoro-phenyl)-urea] has an inhibition in vivo at 50 mg/kg of 72.5%. `COc1ccc(Nc2nc(N)c(-c3ncc(C)c(OC)c3C)s2)cc1` [Example 352, (5-(4-Methoxy-3,5-dimethyl-pyridin-2-yl)-N2-(4-methoxy-phenyl)-thiazole-2,4-diamine)] was tested, and the inhibition in vivo at 50 mg/kg was 23%. `COc1ccc(Nc2nc(N)c(C(=O)c3ccc(NC(C)=O)cc3)s2)cc1` [Example 348, (N-{4-[4-Amino-2-(4-methoxy-phenylamino)-thiazole-5-carbonyl]-phenyl}-acetamide)] showed an inhibition in vivo at 50 mg/kg of 28.3%. In the case of `CS(=O)(=O)c1ccc(-c2cc(-c3nc4ccccc4c(=O)n3-c3ccccc3Cl)sc2N2CCOCC2)cc1` [Example 307, 2-[4-(4-Methanesulphonyl-phenyl)-5-morpholin-4-yl-thiophen-2-yl]-3-(2-chloro-phenyl)-3H-quinazolin-4-one], the inhibition in vivo at 50 mg/kg is reported as 31%. `CS(=O)(=O)c1ccc(-c2cc(C(=O)c3ccccc3)sc2N2CCOCC2)cc1` [Example 54, [4-(4-Methanesulfonyl-phenyl)-5-morpholin-4-yl-thiophene-2-yl]-phenyl-methanone] was tested, and the inhibition in vivo at 50 mg/kg was 17.8%. Molecule `CS(=O)(=O)c1ccc(C(=O)c2sc(Nc3ccc(Cl)cc3)nc2N)cc1` [Example 336, [4-Amino-2-(4-chloro-phenylamino)-thiazol-5-yl]-(4-methanesulfonyl-phenyl)-methanone] has an inhibition in vivo at 50 mg/kg of 28.3%. Molecule `Nc1nc(Nc2ccc(Cl)cc2)sc1C(=O)c1ccc(Cl)cc1Cl` [Example 335, [4-Amino-2-(4-chloro-phenylamino)-thiazol-5-yl]-(2,4-dichloro-phenyl)-methanone] has an inhibition in vivo at 50 mg/kg of 30.3%. Work on `CC(=O)Nc1ccc(C(=O)c2sc(Nc3ccccc3)nc2N)cc1` [Example 326, N-[4-(4-Amino-2-phenylamino-thiazole-5-carbonyl)-phenyl]-acetamide] yielded an inhibition in vivo at 50 mg/kg of 34%. For `O=C(c1cc(-c2ccncc2)c(N2CCOCC2)s1)c1ccc(Cl)cc1Cl` [Example 106, (2,4-Dichloro-phenyl)-(5-morpholin-4-yl-4-pyridin-4-yl-thiophen-2-yl)-methanone], the inhibition in vivo at 50 mg/kg was -75.2%. Molecule `COc1ccc(C(=O)c2cc(-c3ccncc3)c(N3CCOCC3)s2)cc1` [Example 104, (4-Methoxy-phenyl)-(5-morpholin-4-yl-4-pyridin-4-yl-thiophen-2-yl)-methanone] has an inhibition in vivo at 50 mg/kg of 43.5%. Molecule `O=C(Nc1ccc(F)cc1)Nc1nc(Nc2ccc(Cl)cc2)sc1C(=O)c1ccc(Cl)cc1` [Example 357, 1-[5-(4-Chloro-benzoyl)-2-(4-chloro-phenylamino)-thiazol-4-yl]-3-(4-fluoro-phenyl)-urea] has an inhibition in vivo at 50 mg/kg of 24.3%. `Nc1nc(Nc2ccc(Cl)cc2)sc1C(=O)c1ccncc1` [Example 339, [4-Amino-2-(4-chloro-phenylamino)-thiazol-5-yl]-pyridin-4-yl-methanone] showed an inhibition in vivo at 50 mg/kg of 12%. `O=C(c1cc(-c2ccc(Cl)cc2)c(N2CCOCC2)s1)c1cc(-c2ccc(Cl)cc2)c(N2CCOCC2)s1` [Example 114, Bis-[4-(4-chloro-phenyl)-5-morpholin-4-yl-thiophen-2-yl]-methanone] was tested, and the inhibition in vivo at 50 mg/kg was 56.6%. `O=c1c2ccccc2nc(-c2cc(-c3ccccc3)c(N3CCOCC3)s2)n1-c1ccccc1Cl` [Example 304, 3-(2-Chlorophenyl)-2-(5-morpholin-4-yl-4-phenyl-thiophen-2-yl)-3H-quinazolin-4-one] was tested, and the inhibition in vivo at 50 mg/kg was 37%. `COc1ccc(C(=O)c2cc(-c3ccc(NC(C)=O)cc3)c(N3CCOCC3)s2)cc1` [Example 68, N-{4-[5-(4-Methoxy-benzoyl)-2-morpholin-4-yl-thiophene-3-yl]-phenyl}-acetamide] was tested, and the inhibition in vivo at 50 mg/kg was 40%. For `Cc1c(OCC(F)(F)F)ccnc1-c1sc(Nc2ccc(Cl)cc2)nc1N` [Example 342, (N2-(4-Chloro-phenyl)-5-[3-Methyl-4-(2,2,2-trifluoro-ethoxy)-pyridin-2-yl]-thiazole-2,4-diamine)], the inhibition in vivo at 50 mg/kg was 76%. `CSc1ccc(-c2cc(-c3nc4ccccc4c(=O)n3-c3cccc(C)c3)sc2N2CCOCC2)cc1` [Example 288, 2-[4-(4-Methylsulfanyl-phenyl)-5-morpholin-4-yl-thiophen-2-yl]-3-m-tolyl-3H-quinazolin-4-one] showed an inhibition in vivo at 50 mg/kg of 31%. For `COc1cccc(Nc2nc(-c3ccccc3)c(C(=O)c3sc(Nc4cccc(OC)c4)nc3-c3ccccc3)s2)c1` [Example 392, Bis-[2-(3-methoxy-phenylamino)-4-phenyl-thiazol-5-yl]-methanone], the inhibition in vivo at 50 mg/kg was 62%.

Same assay, conditions: carrageenan-induced rat paw edema; defined in Example 397
`O=c1c2ccccc2nc(-c2sc(Nc3ccc(Cl)cc3)nc2-c2ccccc2)n1-c1ccccc1Cl` [Example 238, 2-[2-(4-Chlorophenylamino)-4-phenyl-thiazol-5-yl]-3-(2-Chloro-phenyl)1-3H-quinazolin-4-one] was tested, and the “% Protection” value was 61%.

Same assay, conditions: rat paw edema, 50 mg/kg, reading 3 hours after carrageenan; [(Control−Test)/Control]×100%
In the case of `Cc1ccc(C(=O)c2sc(Nc3ccccc3)nc2N)cc1` [Example 322, 4-Amino-(2-phenylamino-thiazol-5-yl)-p-tolyl-methanone], the “% Protection P” value is reported as 23.98%. For “N-[4-(5-Morpholin-4-yl-4-thiophene-2-carbonyl)-phenyl]-acetamide [Example 49]”, the “% Protection P” value was 68.31%.

Same assay, conditions: rat paw edema, 50 mg/kg, reading 3 hours after carrageenan; [(Control−Test)/Control]×100%; 50 mg/kg
In the case of `Cc1nc(NC(=O)c2ccccc2)sc1C(=O)c1sc(NC(=O)c2ccccc2)nc1C` [Example 128, Bis-[2-(2-Benzoyl-amino)-4-methyl-thiazole-5-yl]-methanone], the “% Protection P” value is reported as 34%. In the case of `Cc1nc(NC(=O)c2ccccc2)sc1C(=O)c1sc(NC(=O)c2ccccc2)nc1C` [Example 121, Bis-[2-(2-Benzoyl-amino)-4-methyl-thiazole-5-yl]-methanone], the “% Protection P” value is reported as 62%. `COc1ccc(C(=O)c2sc(Nc3ccccc3)nc2NC(=O)Nc2ccc(F)cc2)cc1` [Example 354, 1-(4-Fluoro-phenyl)-3-[5-(4-methoxy-benzoyl)-2-phenylamino-thiazol-4-yl]-urea] was tested, and the “% Protection P” value was 26.27%.
